Laboratory results: ChEMBL document CHEMBL1201862, “PubChem BioAssay data set” (2004)
Activity calls are given as the source filed them.

Tests used:
fMet-Leu-Phe receptor = target: T1, fMet-Leu-Phe receptor (Homo sapiens, UniProt P21462); test: formyl peptide receptor binders – dose response (AID 519); type: functional
T1 sequence (P21462 whole entry): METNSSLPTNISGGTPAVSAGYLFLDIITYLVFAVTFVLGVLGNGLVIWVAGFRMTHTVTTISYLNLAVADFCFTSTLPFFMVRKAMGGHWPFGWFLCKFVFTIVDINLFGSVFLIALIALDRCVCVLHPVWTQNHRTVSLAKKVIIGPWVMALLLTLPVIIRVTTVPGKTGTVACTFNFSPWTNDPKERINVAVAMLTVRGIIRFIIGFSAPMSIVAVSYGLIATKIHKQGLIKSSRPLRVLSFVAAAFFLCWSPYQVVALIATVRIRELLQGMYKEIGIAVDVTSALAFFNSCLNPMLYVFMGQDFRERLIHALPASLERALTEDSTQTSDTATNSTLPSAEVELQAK

Cytochrome P450 2C19 = Cytochrome P450 2C19 (Homo sapiens, UniProt P33261); test: Cytochrome panel assay with activity outcomes. Panel member name: p450-cyp2c19 Compounds with AC50 equal or less than 10 uM are considered active; type: functional; conditions: read-out: AC50
Cytochrome P450 2D6 = Cytochrome P450 2D6 (Homo sapiens, UniProt P10635);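 further: CYP2D6 member of a cytochrome P450 panel assay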
HEK293 [1] = test: NOD2 signaling inhibitors in MDP-stimulated cells, cell-based, uHTS, luminescence (AID 2001); type: functional; conditions: Homo sapiens
HEK293 [2] = test: inhibition of NOD1-driven NF-kB reporter – cell-based, luminescence, uHTS, primary screen (AID 1578); type: functional; conditions: Homo sapiens
HEK293 [3] = test: cells; type: functional, cell-based; conditions: Homo sapiens
HEK293 [4] = test: cells; type: functional, cell-based; conditions: Homo sapiens; remark: listed apart in the source
HEK293 [5] = test: cells; type: functional, cell-based; conditions: Homo sapiens; remark: listed apart in the source
[6] = target: Nucleotide-binding oligomerization domain-containing protein 2 (Homo sapiens, UniProt Q9HC29); test: inhibition of NOD2-driven NF-kB reporter – cell-based, luminescence, uHTS, HEK293 (AID 1566); type: functional
[7] = target: Beta-2 adrenergic receptor (Homo sapiens, UniProt P07550); test: ADRB2 activation measured by internalization – cell-based, FAP fluorogen, flow cytometry, cherry pick 1, dose response (AID 588763); type: functional
Protein skinhead-1 = target: T2, Protein skinhead-1 (Caenorhabditis elegans, UniProt P34707); type: functional
T2 sequence (P34707 whole entry): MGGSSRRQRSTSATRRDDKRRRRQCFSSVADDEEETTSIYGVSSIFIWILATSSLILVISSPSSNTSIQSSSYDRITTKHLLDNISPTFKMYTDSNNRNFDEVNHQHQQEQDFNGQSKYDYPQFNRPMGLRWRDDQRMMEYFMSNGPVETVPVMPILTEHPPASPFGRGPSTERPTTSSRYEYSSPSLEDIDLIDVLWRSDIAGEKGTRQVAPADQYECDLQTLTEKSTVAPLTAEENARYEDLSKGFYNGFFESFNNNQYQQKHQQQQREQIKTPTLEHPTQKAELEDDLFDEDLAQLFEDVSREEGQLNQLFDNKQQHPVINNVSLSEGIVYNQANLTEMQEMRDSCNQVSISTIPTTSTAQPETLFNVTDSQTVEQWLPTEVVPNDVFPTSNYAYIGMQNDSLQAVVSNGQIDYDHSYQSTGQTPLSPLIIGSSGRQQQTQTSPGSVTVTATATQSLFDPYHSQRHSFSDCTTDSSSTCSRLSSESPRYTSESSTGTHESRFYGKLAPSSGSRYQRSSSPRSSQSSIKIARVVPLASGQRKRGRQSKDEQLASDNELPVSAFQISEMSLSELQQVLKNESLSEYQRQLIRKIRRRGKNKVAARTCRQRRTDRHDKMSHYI

[8] = target: Glucose-6-phosphate 1-dehydrogenase (Homo sapiens, UniProt P11413); test: inhibition of Homo sapiens G6PD, dose series – biochemical, fluorescence, selectivity assay for P. falciparum G6PD inhibitor project, dose response (AID 504792); type: functional
[9] = target: T3, Polyadenylate-binding protein 1 (Homo sapiens, UniProt P11940); test: MLLE binding blockers, Cy5 peptide tracer – biochemical, fluorescence polarization, Cy5-PAM2 peptide, secondary, miRNA deadenylation inhibitor project, dose response (AID 602260); type: functional; conditions: read-out: IC50_Mean
[10] = target: T4, Rac GTPase-activating protein 1 (Homo sapiens, UniProt Q9H0H5); test: blockers of MgcRacGAP-driven Rac1 GTP hydrolysis – biochemical, ADP Hunter fluorescence, primary and confirmatory, confirmation (AID 624330); type: functional
T4 sequence (Q9H0H5 whole entry): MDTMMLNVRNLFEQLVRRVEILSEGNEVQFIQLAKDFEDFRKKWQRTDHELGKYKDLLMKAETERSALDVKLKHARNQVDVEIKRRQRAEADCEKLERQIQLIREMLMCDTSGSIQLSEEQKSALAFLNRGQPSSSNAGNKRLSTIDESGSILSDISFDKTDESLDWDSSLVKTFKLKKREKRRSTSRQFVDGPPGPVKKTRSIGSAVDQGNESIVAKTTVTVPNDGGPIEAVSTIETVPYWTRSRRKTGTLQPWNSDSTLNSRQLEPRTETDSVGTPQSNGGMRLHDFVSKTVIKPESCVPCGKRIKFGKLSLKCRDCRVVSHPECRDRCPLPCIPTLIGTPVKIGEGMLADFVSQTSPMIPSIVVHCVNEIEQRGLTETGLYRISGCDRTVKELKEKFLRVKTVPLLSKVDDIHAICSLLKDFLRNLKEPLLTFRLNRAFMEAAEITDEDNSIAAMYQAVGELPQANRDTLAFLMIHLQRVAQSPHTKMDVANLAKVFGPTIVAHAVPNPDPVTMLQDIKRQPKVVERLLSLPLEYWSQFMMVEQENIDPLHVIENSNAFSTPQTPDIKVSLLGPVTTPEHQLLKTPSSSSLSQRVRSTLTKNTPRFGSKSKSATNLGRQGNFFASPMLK

[11] = target: T3, Polyadenylate-binding protein 1; test: MLLE domain peptide-binding blockers, IC50 – biochemical, fluorescence polarization, FITC-PAM2 peptide, dose response (AID 602259); type: functional; conditions: read-out: IC50_Mean

T3 sequence (P11940 whole entry): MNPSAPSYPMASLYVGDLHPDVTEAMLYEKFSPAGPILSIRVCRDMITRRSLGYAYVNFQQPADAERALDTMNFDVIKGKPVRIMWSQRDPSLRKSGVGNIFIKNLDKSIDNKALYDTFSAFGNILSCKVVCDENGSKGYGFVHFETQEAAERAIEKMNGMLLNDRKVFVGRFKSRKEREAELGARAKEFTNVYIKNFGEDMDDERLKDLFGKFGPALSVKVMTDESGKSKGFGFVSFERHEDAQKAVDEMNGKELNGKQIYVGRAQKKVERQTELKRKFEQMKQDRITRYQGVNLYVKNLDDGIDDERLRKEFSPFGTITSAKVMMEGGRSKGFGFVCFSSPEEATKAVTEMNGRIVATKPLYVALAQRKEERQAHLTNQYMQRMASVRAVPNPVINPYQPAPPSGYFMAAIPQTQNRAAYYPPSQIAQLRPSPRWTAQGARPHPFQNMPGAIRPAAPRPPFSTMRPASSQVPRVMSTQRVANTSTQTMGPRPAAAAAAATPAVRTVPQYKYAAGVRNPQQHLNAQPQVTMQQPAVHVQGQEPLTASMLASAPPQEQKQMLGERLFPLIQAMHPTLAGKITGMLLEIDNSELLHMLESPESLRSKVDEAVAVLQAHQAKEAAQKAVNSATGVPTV
Chain of Beta-2 adrenergic receptor (P07550 whole entry): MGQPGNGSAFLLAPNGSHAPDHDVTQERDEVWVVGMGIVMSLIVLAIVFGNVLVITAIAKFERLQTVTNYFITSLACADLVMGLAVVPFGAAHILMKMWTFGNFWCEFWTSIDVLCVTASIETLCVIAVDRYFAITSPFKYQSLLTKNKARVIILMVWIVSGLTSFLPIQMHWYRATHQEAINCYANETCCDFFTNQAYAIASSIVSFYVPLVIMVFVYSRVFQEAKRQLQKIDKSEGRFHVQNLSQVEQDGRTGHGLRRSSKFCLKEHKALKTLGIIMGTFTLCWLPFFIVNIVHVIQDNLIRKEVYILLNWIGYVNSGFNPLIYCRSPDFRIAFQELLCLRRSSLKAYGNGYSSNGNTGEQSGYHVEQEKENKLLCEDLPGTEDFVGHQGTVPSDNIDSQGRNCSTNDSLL
Chain of Cytochrome P450 2C19 (P33261 whole entry): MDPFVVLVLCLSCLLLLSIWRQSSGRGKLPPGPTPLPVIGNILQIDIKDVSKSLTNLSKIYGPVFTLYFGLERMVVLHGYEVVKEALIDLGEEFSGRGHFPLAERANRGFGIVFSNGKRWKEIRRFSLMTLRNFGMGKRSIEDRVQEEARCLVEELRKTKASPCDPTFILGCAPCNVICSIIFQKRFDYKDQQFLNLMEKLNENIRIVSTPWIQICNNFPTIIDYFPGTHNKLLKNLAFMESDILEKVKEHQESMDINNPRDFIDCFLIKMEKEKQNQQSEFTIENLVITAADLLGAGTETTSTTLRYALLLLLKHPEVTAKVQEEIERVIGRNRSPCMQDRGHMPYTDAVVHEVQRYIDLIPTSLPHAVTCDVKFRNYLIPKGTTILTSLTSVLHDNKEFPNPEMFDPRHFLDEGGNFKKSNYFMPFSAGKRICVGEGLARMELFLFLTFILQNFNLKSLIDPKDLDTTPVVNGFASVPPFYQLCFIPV
Chain of Nucleotide-binding oligomerization domain-containing protein 2 (Q9HC29 whole entry, the tested form may be a part): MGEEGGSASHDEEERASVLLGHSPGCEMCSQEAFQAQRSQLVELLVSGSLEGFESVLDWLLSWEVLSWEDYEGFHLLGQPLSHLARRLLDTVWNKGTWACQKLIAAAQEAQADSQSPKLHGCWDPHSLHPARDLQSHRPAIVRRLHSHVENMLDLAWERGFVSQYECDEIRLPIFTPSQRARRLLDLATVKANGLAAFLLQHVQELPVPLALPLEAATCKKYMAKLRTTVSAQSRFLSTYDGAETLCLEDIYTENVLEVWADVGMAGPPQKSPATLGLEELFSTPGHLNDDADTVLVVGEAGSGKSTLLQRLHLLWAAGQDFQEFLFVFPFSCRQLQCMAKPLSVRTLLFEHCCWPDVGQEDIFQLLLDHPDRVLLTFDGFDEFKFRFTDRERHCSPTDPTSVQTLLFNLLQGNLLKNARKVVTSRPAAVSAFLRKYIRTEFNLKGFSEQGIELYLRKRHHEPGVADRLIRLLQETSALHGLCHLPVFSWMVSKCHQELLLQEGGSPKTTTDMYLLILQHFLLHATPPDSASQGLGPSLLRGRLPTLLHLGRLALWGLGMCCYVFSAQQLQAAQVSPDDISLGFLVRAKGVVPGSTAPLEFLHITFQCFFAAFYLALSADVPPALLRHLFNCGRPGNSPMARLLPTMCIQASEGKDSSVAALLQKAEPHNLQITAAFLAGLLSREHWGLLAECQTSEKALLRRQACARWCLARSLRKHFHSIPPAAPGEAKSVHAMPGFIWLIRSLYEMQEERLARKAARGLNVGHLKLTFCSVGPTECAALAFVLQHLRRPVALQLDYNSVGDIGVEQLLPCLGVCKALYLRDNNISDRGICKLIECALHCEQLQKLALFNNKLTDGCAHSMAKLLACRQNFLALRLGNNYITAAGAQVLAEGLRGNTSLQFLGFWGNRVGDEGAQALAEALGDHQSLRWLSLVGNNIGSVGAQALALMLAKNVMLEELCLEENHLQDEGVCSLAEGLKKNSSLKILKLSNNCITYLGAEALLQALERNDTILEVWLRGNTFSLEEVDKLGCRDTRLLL
Chain of Cytochrome P450 2D6 (P10635 whole entry): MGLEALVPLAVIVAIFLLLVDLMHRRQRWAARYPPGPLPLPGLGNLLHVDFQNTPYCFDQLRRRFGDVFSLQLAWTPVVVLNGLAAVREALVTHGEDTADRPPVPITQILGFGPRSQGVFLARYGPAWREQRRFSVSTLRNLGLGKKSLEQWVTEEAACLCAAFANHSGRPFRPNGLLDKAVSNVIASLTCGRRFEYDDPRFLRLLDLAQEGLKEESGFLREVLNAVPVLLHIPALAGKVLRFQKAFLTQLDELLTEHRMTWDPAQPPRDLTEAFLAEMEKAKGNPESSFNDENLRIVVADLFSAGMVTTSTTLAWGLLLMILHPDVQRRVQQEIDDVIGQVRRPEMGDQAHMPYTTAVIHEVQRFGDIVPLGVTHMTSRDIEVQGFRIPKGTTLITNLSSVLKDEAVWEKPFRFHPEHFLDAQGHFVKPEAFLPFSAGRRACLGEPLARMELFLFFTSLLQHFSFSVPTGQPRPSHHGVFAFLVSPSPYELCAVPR
Chain of Glucose-6-phosphate 1-dehydrogenase (P11413 whole entry): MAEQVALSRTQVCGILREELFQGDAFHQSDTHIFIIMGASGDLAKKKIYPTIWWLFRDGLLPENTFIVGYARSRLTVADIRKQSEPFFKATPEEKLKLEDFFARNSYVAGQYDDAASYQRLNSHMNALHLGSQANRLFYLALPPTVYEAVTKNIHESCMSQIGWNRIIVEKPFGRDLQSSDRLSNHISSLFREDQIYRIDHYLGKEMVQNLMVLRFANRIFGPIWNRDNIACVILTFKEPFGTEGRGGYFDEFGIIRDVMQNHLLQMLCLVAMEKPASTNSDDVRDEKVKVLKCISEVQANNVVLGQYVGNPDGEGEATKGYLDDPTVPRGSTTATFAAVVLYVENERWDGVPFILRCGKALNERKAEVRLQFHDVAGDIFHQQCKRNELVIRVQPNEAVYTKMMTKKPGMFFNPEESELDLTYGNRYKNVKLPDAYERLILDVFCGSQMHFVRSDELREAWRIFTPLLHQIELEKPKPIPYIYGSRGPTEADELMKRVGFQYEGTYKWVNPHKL

**Q.** How did the Ki (fMet-Leu-Phe receptor) turn out when `O=C(O)C1CCCCC1C(=O)Nc1ccccc1Cl` (stereo unspecified) was run?
**A.** > 66.7 µM (inactive)

**Q.** And the AC50 (Cytochrome P450 2C19)?
**A.** 2.24 µM (inconclusive)

**Q.** And the AC50 (Cytochrome P450 2D6)?
**A.** inconclusive

**Q.** What does the source list for `Cc1ccc2cccc(/N=C/c3c(C)[nH]n(-c4ccccc4)c3=O)c2n1`?
**A.** IC50 (HEK293 [1]): 7.67 µM (active); EC50 (HEK293 [2]): 4.72 µM (active); IC50 (HEK293 [3]): > 20 µM (inactive); IC50 (HEK293 [4]): > 20 µM (inactive); IC50 (HEK293 [5]): > 20 µM (inactive); EC50 [6]: > 20 µM (inactive)

**Q.** Which EC50 [7] does the source give for `Cc1cc(C)n2nc(C(=O)Nc3cccc(S(=O)(=O)N(C)c4ccccc4)c3)nc2n1` here?
**A.** 0.0342 µM (active)

**Q.** With `Cc1ccc(O)c(NC(=O)c2cccc(NC(=O)c3ccco3)c2)c1` as the compound, how does the EC50 [7] read?
**A.** 0.132 µM (active)

**Q.** `c1cc(CNc2ccc3c(c2)OCO3)ccn1` was tested. Which IC50 (Protein skinhead-1) did it give?
**A.** > 100 µM (inactive)

**Q.** What about the IC50 [8] of the same compound?
**A.** > 80 µM (inactive)

**Q.** What about the IC50 [9] of the same compound?
**A.** > 66 µM (inactive)

**Q.** What about the IC50 [10] of the same compound?
**A.** 63.8 µM (active)

**Q.** What about the IC50 [11] of the same compound?
**A.** 23.5 µM (inactive)
